Experimental findings from US8946298B2, “Plant disease controlling composition and method for controlling plant disease” (Sumitomo Chemical Company, Limited, priority 2010, dated 2015) are described below.

The assay relates to gray mold fungus (Botrytis cinerea). Put plainly: cucumber leaf disk test, preventive value against gray mold. The settings on record: 15° C., four days. Format: in vivo. As for the experimental part:
True leaf of cucumber is punched out with cork borer to 13 mm in diameter to prepare a leaf disk. In 24 well microwell plate that is dispensed with 1 ml 0.8% water agar, the leaf disk is placed such that the upper side of the leaf is in an upward direction. Thereto is added 20 micro liter a testing solution prepared by mixing a dimethyl sulfoxide solution of the present compound (racemate) and a dimethyl sulfoxide solution of iminoctadine trialbesilate to a predetermined concentration to treat the leaf disk.
After confirming that the testing medical solution is dried, conidium of gray mold fungus (Botrytis cinerea) is suspended into potato dextrose broth (DIFCO) in a density of about 10^5 conidium/mL and is then subjected to a spray inoculation. After leaving to stand the leaf disk in a growth chamber set up at 15° C. for four days, an onset area on the leaf is measured and then calculated an onset area rate (hereinafter, referred to as an onset area rate of treated group).
The same operation is carried out with 20 micro liter water instead of 20 micro liter a testing medicine solution to calculate an onset area rate (hereinafter, referred to an onset area rate of non-treated group).
A preventive value is calculated from the above onset area rate of treated group and the onset area rate of non-treated group by the following equation: Preventive value (%)=100×(A−B)/A
A: an onset area rate of treated group
B: an onset area rate of non-treated group
The same operations as described in Test Example 1 are carried out with iminoctadine triacetate instead of iminoctadine trialbesilate, so as to calculate a preventive value.
Also for comparison, the same operations as described in Test Example 1 are carried out with the exception that the testing medicine solution is substituted with a predetermined concentration of each dimethyl sulfoxide solution of the present compound (racemate) or iminoctadine triacetate, so as to calculate respective preventive values.
For comparison, the same operations as described in Test Example 1 are carried out with the exception that the testing medicine solution is substituted with a predetermined concentration of a dimethyl sulfoxide solution of iminoctadine triacetate, so as to calculate a preventive value.

On to `CC(=O)O.CC(=O)O.CC(=O)O.NC(N)=NCCCCCCCCNCCCCCCCCN=C(N)N` [iminoctadine triacetate], for which the “preventive value (%)” value by setting is: (Table 2, iminoctadine triacetate alone 0.5 ppm) 20%; (Table 2, iminoctadine triacetate alone 5.0 ppm) 53%; (Table 3 (Reference Example), iminoctadine triacetate alone 0.5 ppm) 20%; (Table 3 (Reference Example), iminoctadine triacetate alone 5.0 ppm) 56%.
